In article PMC11494653, “Teixobactin “Swapmers” with L Tail Stereochemistry Retain Antibiotic Activity” (The Journal of Organic Chemistry, 2024):
Converted amounts (≈) assume the structure as drawn. Positions of bridges follow the written chain, without caps; N, C: chain ends. Non-standard residues stand in square brackets, D forms with d. Residues, ends and D or L forms follow the SMILES beside them. Chains are numbered I, II in the order given. d(aIle) = CC[C@H](C)[C@@H](N)C(=O)O; NMeF = CN[C@@H](Cc1ccccc1)C(=O)O; dNMeF = CN[C@H](Cc1ccccc1)C(=O)O

How the values were obtained:
Format in all cases: cell-based
[1] = tested on: Bacillus subtilis ATCC 6051; test: microbe, parasite or virus in culture; conditions: ATCC 6051, 16 h
From the text: (§1) We determined the MIC values of these teixobactin swapmer prodrugs against the Gram-positive bacteria Bacillus subtilis, Staphylococcus epidermidis, methicillin-susceptible Staphylococcus aureus (MSSA), and methicillin-resistant Staphylococcus aureus (MRSA) in a broth microdilution assay as described previously.[9],[10] We used the antibiotic vancomycin as a positive control and the Gram-negative bacterium Escherichia coli as a negative control. The MIC values for Lys10-teixobactin 1, Lys10-teixobactin prodrug 2, Arg10-teixobactin 6, and Arg10-teixobactin prodrug 7 are shown in Table 1 for comparison with the swapmer analogues.
(§2) We performed minimum inhibitory concentration (MIC) assays as previously described.[9] A concise procedure is detailed below.
(§3) Stock solutions of teixobactin analogues were prepared gravimetrically by dissolving an appropriate amount of peptide in 20 mg/mL sterile DMSO. The stock solutions were stored at −20 °C for subsequent experiments.
(§4) Bacillus subtilis (ATCC 6051), Staphylococcus epidermidis (ATCC 14990), methicillin-susceptible Staphylococcus aureus (MSSA) (ATCC 29213), and Escherichia coli (ATCC 10798) were cultured from glycerol stocks in Mueller-Hinton broth containing 0.002% polysorbate 80 overnight in a shaking incubator at 37 °C. Methicillin-resistant Staphylococcus aureus (MRSA) (ATCC 700698) was cultured from a glycerol stock in brain hearth infusion broth containing 0.002% polysorbate 80 overnight in a shaking incubator at 37 °C. After overnight incubation, each culture was diluted with the appropriate media (containing 0.002% polysorbate 80) to 1 × 10^6 colony-forming units (CFU)/mL as previously described.[12],[15],[16] Briefly, we have previously determined the CFU/mL for each bacterium at OD600 = 0.075 for 200 μL of bacterial culture in a 96-well plate. The OD600 of each overnight culture was determined, and then each culture was diluted to OD600 = 0.075. Cultures were further diluted to achieve 1 × 10^6 CFU/mL solutions.
(§5) Aliquots of the 20 mg/mL peptide stock solutions were diluted to make a 64 μg/mL solution in Mueller-Hinton broth containing 0.002% polysorbate 80 and a 64 μg/mL solution in brain heart infusion broth containing 0.002% polysorbate 80. The solutions were mixed by pipetting to ensure homogeneity. A 200-μL aliquot of a 64 μg/mL solution was transferred to a 96-well plate. 2-fold serial dilutions were made with media containing 0.002% polysorbate 80 across the 96-well plate to achieve a final volume of 100 μL in each well (initial concentrations ranging from 64 to 0.0625 μg/mL). A 100-μL aliquot of a 1 × 10^6 CFU/mL bacterial solution was added to each well in the series, resulting in final bacterial concentrations of 5 × 10^5 CFU/mL in each well. As 100 μL of bacteria were added to each well, the concentration of peptide was also diluted 2-fold (final concentrations ranging from 32 μg/mL to 0.03125 μg/mL). Each plate was covered with a lid and incubated at 37 °C for 16 h. The optical density measurements were measured at 600 nm using a 96-well UV–vis plate reader (MultiSkan GO, Thermo Scientific). The MIC values were taken as the lowest concentration that had no bacterial growth. MIC assays for each compound were performed in triplicate to ensure reproducibility.

[2] = tested on: Escherichia coli ATCC 10798; test: microbe, parasite or virus in culture; conditions: ATCC 10798, 16 h
From the text: as §1, §2, §3, §4, §5

[3] = tested on: Staphylococcus aureus (MRSA) ATCC 700698; test: microbe, parasite or virus in culture; conditions: ATCC 700698, 16 h
From the text: as §1, §2, §3, §4, §5

[4] = tested on: Staphylococcus aureus (MSSA) ATCC 29213; test: microbe, parasite or virus in culture; conditions: ATCC 29213, 16 h
From the text: as §1, §2, §3, §4, §5

[5] = tested on: Staphylococcus epidermidis ATCC 14990; test: microbe, parasite or virus in culture; conditions: ATCC 14990, 16 h
From the text: as §1, §2, §3, §4, §5

[6] = tested on: Gram-positive bacteria tested; conditions: 16 h
From the text: as §1, §2, §3, §4
Aliquots of the 20 mg/mL peptide stock solutions were diluted to make a 64 μg/mL solution in Mueller-Hinton broth containing 0.002% polysorbate 80 and a 64 μg/mL solution in brain heart infusion broth containing 0.002% polysorbate 80. The solutions were mixed by pipetting to ensure homogeneity. A 200-μL aliquot of a 64 μg/mL solution was transferred to a 96-well plate. 2-fold serial dilutions were made with media containing 0.002% polysorbate 80 across the 96-well plate to achieve a final volume of 100 μL in each well (initial concentrations ranging from 64 to 0.0625 μg/mL). […] The optical density measurements were measured at 600 nm using a 96-well UV–vis plate reader (MultiSkan GO, Thermo Scientific). […]

[7] = tested on: all bacteria tested; test: MIC broth microdilution assay, summary over all bacteria; conditions: concentration range tested up to 32 μg/mL
From the text: as §1, §2, §3
as §4, with “After overnight incubation, each culture was diluted with the appropriate media (containing 0.002% polysorbate 80) to 1 × 10^6 colony-forming units (CFU)/mL as previously described.[12],[15],[16]” left out, “Cultures were further diluted to achieve 1 × 10^6 CFU/mL solutions.” left out
Aliquots of the 20 mg/mL peptide stock solutions were diluted to make a 64 μg/mL solution in Mueller-Hinton broth containing 0.002% polysorbate 80 and a 64 μg/mL solution in brain heart infusion broth containing 0.002% polysorbate 80. […] The optical density measurements were measured at 600 nm using a 96-well UV–vis plate reader (MultiSkan GO, Thermo Scientific). […]

SMILES | MIC B. subtilis [1] [µg/mL] | MIC Bacillus subtilis ATCC 6051 [1] [µg/mL] | MIC Escherichia coli ATCC 10798 [2] [µg/mL] | MIC Staphylococcus aureus (MRSA) ATCC 700698 [3] [µg/mL] | MIC Staphylococcus aureus (MSSA) ATCC 29213 [4] [µg/mL] | MIC Staphylococcus epidermidis ATCC 14990 [5] [µg/mL] | MIC values against the Gram-positive bacteria tested [6] [µg/mL] | fold reduced activity compared to the unswapped analogues 1, 2, 6, and 7 [6] | antibiotic activity in words against all bacteria tested [7]
CC[C@H](C)[C@H](NC(=O)[C@@H](Cc1ccccc1)NC)C(=O)N[C@@H](CO)C(=O)N[C@H](CCC(N)=O)C(=O)N[C@@H](C(=O)N[C@H](C(=O)N[C@@H](CO)C(=O)N[C@H]1C(=O)N[C@@H](C)C(=O)N[C@@H](CCCCN)C(=O)N[C@@H]([C@@H](C)CC)C(=O)O[C@H]1C)[C@@H](C)CC)[C@@H](C)CC [compound 1, Lys10-teixobactin] (H-[dNMeF]IS[dQ][d(aIle)]IS[dT]AKI; ester 8-C) | ≤ 0.0625 | ≤0.0313 | >32 | 2 (≈ 1.64 µM) | 2 (≈ 1.64 µM) | 1 (≈ 0.822 µM) | – | – | –
CC[C@H](C)[C@H](NC(=O)[C@@H](Cc1ccccc1)NC)C(=O)N[C@@H](CO)C(=O)N[C@H](CCC(N)=O)C(=O)N[C@@H](C(=O)N[C@H](C(=O)OC[C@H](N)C(=O)N[C@H]1C(=O)N[C@@H](C)C(=O)N[C@@H](CCCCN)C(=O)N[C@@H]([C@@H](C)CC)C(=O)O[C@H]1C)[C@@H](C)CC)[C@@H](C)CC [compound 2, [Ile6-O-Ser7],Lys10-teixobactin] (I: H-[dNMeF]IS[dQ][d(aIle)]I / II: H-S[dT]AKI; ester I:C-II:1, II:2-II:C) | ≤ 0.0625 | ≤0.0313 | >32 | 1 to 2 | 2 (≈ 1.64 µM) | 1 (≈ 0.822 µM) | – | – | –
CC[C@H](C)[C@H](NC(=O)[C@H](CO)NC(=O)[C@@H](NC(=O)[C@@H](Cc1ccccc1)NC)[C@@H](C)CC)C(=O)N[C@@H](CCC(N)=O)C(=O)N[C@H](C(=O)OC[C@H](N)C(=O)N[C@H]1C(=O)N[C@@H](C)C(=O)N[C@@H](CCCCN)C(=O)N[C@@H]([C@@H](C)CC)C(=O)O[C@H]1C)[C@@H](C)CC [compound 3, Ile4,Gln5,[Ile6-O-Ser7],Lys10-teixobactin] (I: H-[dNMeF]ISIQI / II: H-S[dT]AKI; ester I:C-II:1, II:2-II:C) | – | 4 (≈ 3.29 µM) | >32 | 8 (≈ 6.58 µM) | 8 (≈ 6.58 µM) | 4 (≈ 3.29 µM) | 4 to 8 | 2–4 fold | –
CC[C@H](C)[C@H](NC(=O)[C@H](Cc1ccccc1)NC)C(=O)N[C@@H](CO)C(=O)N[C@H](C(=O)N[C@@H](CCC(N)=O)C(=O)N[C@H](C(=O)OC[C@H](N)C(=O)N[C@H]1C(=O)N[C@@H](C)C(=O)N[C@@H](CCCCN)C(=O)N[C@@H]([C@@H](C)CC)C(=O)O[C@H]1C)[C@@H](C)CC)[C@@H](C)CC [compound 4, N-Me-L-Phe1,Ile4,Gln5,[Ile6-O-Ser7],Lys10-teixobactin] (I: H-[NMeF]ISIQI / II: H-S[dT]AKI; ester I:C-II:1, II:2-II:C) | – | ≥32 | >32 | >32 | >32 | >32 | – | – | virtually inactive
